Experimental data taken from patent US10639299B2, “Calcium sensing receptors, ligands, compositions, and methods of use” (Georgia State University Research Foundation, Inc., priority 2016, dated 2020).

Biological target: T1, hCaSR-ECD (Homo sapiens, UniProt P41180)
T1 construct: made in house; host or cells: HEK293S (GnTI-) suspension culture, secreted
T1 sequence (P41180 20-612): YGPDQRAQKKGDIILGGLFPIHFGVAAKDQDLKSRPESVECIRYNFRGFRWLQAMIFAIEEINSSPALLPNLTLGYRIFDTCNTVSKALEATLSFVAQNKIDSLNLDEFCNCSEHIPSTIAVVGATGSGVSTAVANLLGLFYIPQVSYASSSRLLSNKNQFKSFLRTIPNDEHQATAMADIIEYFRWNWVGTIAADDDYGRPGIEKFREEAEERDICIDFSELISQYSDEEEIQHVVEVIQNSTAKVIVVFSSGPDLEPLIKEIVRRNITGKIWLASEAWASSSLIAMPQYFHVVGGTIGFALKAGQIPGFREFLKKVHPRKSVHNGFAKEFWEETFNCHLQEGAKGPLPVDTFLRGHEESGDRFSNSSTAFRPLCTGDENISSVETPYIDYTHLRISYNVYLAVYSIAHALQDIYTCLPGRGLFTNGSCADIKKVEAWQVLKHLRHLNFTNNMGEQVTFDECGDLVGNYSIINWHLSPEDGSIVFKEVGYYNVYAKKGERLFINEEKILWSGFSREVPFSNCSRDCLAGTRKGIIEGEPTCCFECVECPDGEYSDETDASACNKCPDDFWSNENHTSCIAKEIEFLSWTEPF
Experiment: Phenylalanine replacement of TNCA bound to hCaSR-ECD, LC-ESI-MS
Assay type: binding
Details: overnight, 838 at 0 mM
Procedure: Considering CaSR ligand is tightly bound with hCaSR-ECD, it is conceivable that hCaSR-ECD has to be denatured to release CaSR ligand. To extract CaSR ligand, 50 μL of purified hCaSR-ECD (10 mg/mL) was mixed with 120 μL acetonitrile and vortexed. After high speed centrifugation, 10 μL of the CaSR ligand extract was injected onto a reverse-phase ACQUITY UPLC BEH C18 column (2.1 mm×100 mm, 1.7-μm particle size; Waters). Column temperature was maintained at 40° C. The flow rate was 0.3 mL/min with starting conditions at 99% solvent A (water+0.1% formic acid) and 1% solvent B (acetonitrile). The 15-min gradient profile for elution was as follows: starting at 1% solvent B and hold for 1 min, then ramping to 98% B at 10 min, hold at 98% B to 12 min, at 12.01 min return to 99% A/1% B and maintain until 15 min. The samples were analyzed by using a Waters Xevo G2-XS QToF LC-MS interfaced to a Waters Acquity UPLC system. […] Fragmentation, formula, and abundances were analyzed with Waters MassLynx Software.
A phenylalanine replacement experiment was carried out by mixing purified hCaSR-ECD protein (0.26 mg/mL) with phenylalanine (final concentrations are 0, 50 and 150 mM, respectively). […] The protein samples were adjusted to the same concentration using SEC buffer and analyzed by LC-ESI-MS.

area under the MS peak of TNCA remaining bound to hCaSR-ECD (50 mM phenylalanine): 180
area under the MS peak of TNCA remaining bound to hCaSR-ECD (150 mM phenylalanine): 76
Compound: N[C@@H](Cc1ccccc1)C(=O)O [Phe, phenylalanine]
